Reference: US9133164B2, “MIF inhibitors and their uses” (INNOV88 LLC, priority 2011, dated 2015)
Where two headings read alike, the source gives them in different places.

Key:
LPS-stimulated PBMCs = test: Cytokine production in LPS-stimulated human PBMCs (ELISA); format: cell-based; conditions: for inhibition at 2.5 µM / inhibition at 25 µM: Homo sapiens, PBMC
Source text: MIF is secreted by monocytes/macrophages, activated T cells and several effector cells that play an important role in the perpetuation of inflammatory responses of the disease pathogenesis of several autoimmune and inflammatory disorders. MIF promotes the production of proinflammatory mediators such as tumor necrosis factor-α (TNF-α), interleukin (IL)-1β, IL-6 and IL-8 acting in an autocrine and paracrine function in the induction of proinflammatory responses. MIF has also been reported to stimulate the production of IL-17, a T helper 17 (Th17)-specific cytokine critical to the pathogenesis of several autoimmune and inflammatory diseases. […] Mono-Mac-6 Cells: The cellular efficacy of compound candidates is determined using the human monocytic cell line, Mono-Mac-6 cells (MM6 cells) as it has been shown that MM6 cells abundantly express MIF receptors CD74 and CXCR4. MIF-mediated signal transduction through these receptors may be important for the production of inflammatory mediators, including TNF-α, IL-1β, IL-6, IL-8, interferon-γ (IFN-γ) and prostaglandin E2 (PGE2) in these cells. To induce the production of inflammatory mediators, MM6 cells will be plated at a final concentration of 5×10^5 cells/ml in RPMI 1640 medium containing 1% heat-inactivated low-pyrogen fetal bovine serum, 2 mM GlutaMAX-I, 1% non-essential amino acids, 1% sodium pyruvate, 100 units/ml penicillin G and 100 μg/ml streptomycin (Gibco BRL Life Technologies). Cells will be stimulated with 100 ng/ml rhMIF purchased commercially or generated in house with or without inhibitor for 20 h at 37° C. with 5% CO2. The supernatants are stored at […] until they are to be assayed. The levels of inflammatory mediators will be determined using commercial :ELISA kits (eBiosciences). Human Peripheral Blood Mononuclear Cells (PBMCs): The cellular efficacy of compound candidates in inhibiting the production of proinflammatory mediators TNF-α, IL-1β, IL-6 and IL-8 following lipopolysaccharide (LPS) and rhMIF stimulation, and the production of T helper 17 (Th17)-specific cytokines IL-17F and IL-22 following anti-CD3/anti-CD28 stimulation, are determined in human PBMCs. To induce the production of proinflammatory cytokine mediators, cryopreserved human PBMCs (Cellular Technology Ltd.) are plated at a final concentration of 2×10^5 cells/ml in RPMI 1640 medium containing 1% heat-inactivated fetal bovine serum, 1% L-Glutamine and 1% Penicillin/Streptomycin (Lonza). Cells are pre-incubated with or without inhibitor compounds dissolved in DMSO for 1 hour, then stimulated with LPS (Sigma Aldrich) or rhMIF to yield final concentrations of <0.1% DMSO, 100 ng/ml LPS and the compound concentration of interest. The potency of the compound candidates in inhibiting cytokine production is compared, to other small molecule MIF inhibitor standards ISO-1 (EMD Chemicals) N-acetyl-p-benzoquinone imine (NAPQI) and Ibudilast (TCI America). Cells were incubated for 20 hours at 37° C., 5% CO2. For the Th17-specific cytokine production assay, cells are stimulated with 5 ug/mL plate immobilized anti-CD3 (eBioscience) and 2 ug/mL soluble anti-CD28 (eBioscience) in the presence or absence of inhibitor compounds dissolved in DMSO to yield final compound concentrations of interest at <0.1% DMSO. Cells were incubated for 72 hours at 37° C. and 5% CO2. The supernatants are stored at −20° C. until they are to be assayed by ELISA. Cell viability is determined using PrestoBlue™ Cell Viability Reagent (Invitrogen). The cytokine production levels of TNF-α, IL-1β, IL-6, IL-8, IL-17F and IL-22 are determined using commercial ELISA kits (eBiosciences). Human Rheumatoid Arthritis Synovial Fibroblast (RASF) Cell Line: RASF cells are cultured in Dulbecco's modified Eagle's medium with 15% FBS, 1% glutamine, and 1% penicillin/streptamycin (all from Gibco (Invitrogen), Gaithersburg, Md.). […]

Native human MIF = molecular target: T1, Native human MIF (Homo sapiens, UniProt P14174); test: MIF tautomerase activity assay (HPP substrate); format: biochemical; conditions: absorbance at 300 nm
T1 sequence (P14174 2-115 limits assumed): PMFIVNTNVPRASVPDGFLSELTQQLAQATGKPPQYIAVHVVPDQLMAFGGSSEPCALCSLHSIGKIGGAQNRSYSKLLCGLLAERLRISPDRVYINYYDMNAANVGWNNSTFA
Experimental: The ability of candidate compounds to inhibit this tautomerase activity is quantitated by wing hydroxyphenyl pyruvic acid (HPP) as a substrate and following the increase in absorbance due to the enzymatic formation of the HPP enol-borate complex at 300 nm in the absence and presence of a test compound. The IC50 value of compounds was determined by plotting the initial velocities determined at 300 nm as a function of a test compound's concentration. Assays were carried out in a 96 or 384 well plate format.
Representative MIF inhibitors were tested in the assay described above and the results tabulated in Table 1 wherein “A” represents ≦1 μM; “B” represents >1 μM and ≦100 μM; “C” represents >100 μM

[1] = LPS-stimulated PBMCs, compound at 2.5 uM, 1 hour preincubation, 20 hours, read-out: percent inhibition of IL-1β production
[2] = LPS-stimulated PBMCs, compound at 2.5 uM, 1 hour preincubation, 20 hours, read-out: percent inhibition of IL-6 production
[3] = LPS-stimulated PBMCs, compound at 2.5 uM, 1 hour preincubation, 20 hours, read-out: percent inhibition of IL-8 production
[4] = LPS-stimulated PBMCs, compound at 2.5 uM, 1 hour preincubation, 20 hours, read-out: percent inhibition of TNF-α production
[5] = LPS-stimulated PBMCs, compound at 25 uM, 1 hour preincubation, 20 hours, read-out: percent inhibition of IL-1β production
[6] = LPS-stimulated PBMCs, compound at 25 uM, 1 hour preincubation, 20 hours, read-out: percent inhibition of IL-6 production
[7] = LPS-stimulated PBMCs, compound at 25 uM, 1 hour preincubation, 20 hours, read-out: percent inhibition of IL-8 production
[8] = LPS-stimulated PBMCs, compound at 25 uM, 1 hour preincubation, 20 hours, read-out: percent inhibition of TNF-α production
[9] = LPS-stimulated PBMCs, ISO-1 at 5.0 uM, 20 hours
[10] = LPS-stimulated PBMCs, ISO-1 at 50 uM, 20 hours
[11] = read-out: percent inhibition of IL-1β production
[12] = read-out: percent inhibition of IL-6 production
[13] = read-out: percent inhibition of IL-8 production
[14] = read-out: percent inhibition of TNF-α production

Row | Compound | IC50 (Native human MIF) [nM] | inhibition at 2.5 µM (LPS-stimulated PBMCs; [1]) [%] | inhibition at 2.5 µM (LPS-stimulated PBMCs; [2]) [%] | inhibition at 2.5 µM (LPS-stimulated PBMCs; [3]) [%] | inhibition at 2.5 µM (LPS-stimulated PBMCs; [4]) [%] | inhibition at 25 µM (LPS-stimulated PBMCs; [5]) [%] | inhibition at 25 µM (LPS-stimulated PBMCs; [6]) [%] | inhibition at 25 µM (LPS-stimulated PBMCs; [7]) [%] | inhibition at 25 µM (LPS-stimulated PBMCs; [8]) [%] | other results
1 | Cn1c(=O)c(C#N)c(NC2CN(C(=O)c3cccs3)C2)c2ccccc21 [Compound 6] | ≤ 1000 | 10 to 50 | 10 to 50 | < 10 | 10 to 50 | 10 to 50 | 10 to 50 | < 10 | 10 to 50 | 
2 | COC(=O)CC1CC(c2ccc(O)cc2)=NO1 (stereo not drawn) [ISO-1, reference compound] |  |  |  |  |  |  |  |  |  | percent inhibition of IL-1β production (LPS-stimulated PBMCs; [9]): F (“F” represents >50% inhibition and ≦70% inhibition); percent inhibition of IL-6 production (LPS-stimulated PBMCs; [9]): D (“D” represents ≦10% inhibition); percent inhibition of IL-8 production (LPS-stimulated PBMCs; [9]): D (“D” represents ≦10% inhibition); percent inhibition of TNF-α production (LPS-stimulated PBMCs; [9]): E (“E” represents >10% inhibition and ≦50% inhibition); percent inhibition of IL-1β production (LPS-stimulated PBMCs; [10]): G (“G” represents >70% inhibition); percent inhibition of IL-6 production (LPS-stimulated PBMCs; [10]): F (“F” represents >50% inhibition and ≦70% inhibition); percent inhibition of IL-8 production (LPS-stimulated PBMCs; [10]): E (“E” represents >10% inhibition and ≦50% inhibition); percent inhibition of TNF-α production (LPS-stimulated PBMCs; [10]): G (“G” represents >70% inhibition)
3 | CC(C)C(=O)c1c(C(C)C)nn2ccccc12 [Ibudilast, reference compound] |  | 50 to 70 | < 10 | < 10 | > 70 | > 70 | < 10 | < 10 | > 70 | 
4 | CC(=O)N=C1C=CC(=O)C=C1 [NAPQI, N-acetyl-p-benzoquinone imine, reference compound] |  |  |  |  |  |  |  |  |  | inhibition at 2.5 µM (LPS-stimulated PBMCs; [11]): 10 to 50%; inhibition at 25 µM (LPS-stimulated PBMCs; [11]): > 70%; inhibition at 2.5 µM (LPS-stimulated PBMCs; [12]): < 10%; inhibition at 25 µM (LPS-stimulated PBMCs; [12]): < 10%; inhibition at 2.5 µM (LPS-stimulated PBMCs; [13]): < 10%; inhibition at 25 µM (LPS-stimulated PBMCs; [13]): < 10%; inhibition at 2.5 µM (LPS-stimulated PBMCs; [14]): < 10%; inhibition at 25 µM (LPS-stimulated PBMCs; [14]): > 70%

Continued, in another order:

Row | IC50 (Native human MIF) [nM] | Compound | inhibition at 2.5 µM (LPS-stimulated PBMCs; [1]) [%] | inhibition at 2.5 µM (LPS-stimulated PBMCs; [2]) [%] | inhibition at 2.5 µM (LPS-stimulated PBMCs; [3]) [%] | inhibition at 2.5 µM (LPS-stimulated PBMCs; [4]) [%] | inhibition at 25 µM (LPS-stimulated PBMCs; [5]) [%] | inhibition at 25 µM (LPS-stimulated PBMCs; [6]) [%] | inhibition at 25 µM (LPS-stimulated PBMCs; [7]) [%] | inhibition at 25 µM (LPS-stimulated PBMCs; [8]) [%] | other results
5 | ≤ 1000 | N#Cc1c(NC2CN(C(=O)c3ccncc3)C2)c2ccccc2n(Cc2ccc(F)cc2)c1=O [Compound 7] | 50 to 70 | 10 to 50 | < 10 | 10 to 50 | > 70 | < 10 | < 10 | > 70 | 
6 | ≤ 1000 | N#Cc1c(NC2CN(C(=O)c3cccs3)C2)c2ccccc2n(Cc2ccc(F)cc2)c1=O [Compound 8] | 50 to 70 | < 10 | < 10 | 10 to 50 | > 70 | 10 to 50 | < 10 | 10 to 50 | 
